Data taken from PMC6116703, “Ethenesulfonyl fluoride derivatives as telomerase inhibitors: structure-based design, SAR, and anticancer evaluation in vitro” (Journal of Enzyme Inhibition and Medicinal Chemistry, 2018).
Where two headings read alike, the source gives them in different places.

Experiments:
[1] = test system: human hepatoma cell SMMC-7721; assay: Cell proliferation (MTT) assay, SMMC-7721; type: cell-based; conditions: read-out: IC50 SMMC-7721
Protocol: (§1) The antiproliferative activities evaluation was conducted by using a modified procedure as described in the literature. Briefly, target tumour cells were grown to log phase in RPMI 1640 medium supplemented with 10% fetal bovine serum. After diluting to 3 × 10^4 cells mL^−1 with the complete medium, 100 µL of the obtained cell suspension was added to each well of 96-well culture plates. The subsequent incubation was performed at 37 °C, 5% CO2 atmosphere for 24 h before subjecting to antiproliferation assessment. The tested samples at pre-set concentrations were added to six wells with Doxorubicin (AMD) co-assayed as a positive reference. After 48 h of exposure period, 25 µL of PBS containing 2.5 mg·mL^−1 of MTT was added to each well. After 4 h, the medium was replaced by 150 µL DMSO to dissolve the purple formazan crystals produced. The absorbance at 570 nm of each well was measured using an ELISA plate reader. The data represented the mean of three experiments in triplicate and were expressed as means ± SD using Student’s test.

[2] = test system: human breast cancer cell MDA-MB-231; assay: Cell proliferation (MTT) assay, MDA-MB-231; type: cell-based
Protocol: as §1

human melanoma cell A375 = assay: Cell proliferation (MTT) assay, A375; type: cell-based
Protocol: as §1

telomerase = biological target: T1, telomerase (Homo sapiens, UniProt O14746); assay: Telomerase activity TRAP-PCR-ELISA assay (A375 cell extract); type: biochemical; conditions: TRAP-PCR-ELISA, A375 cells, 24 h treatment
T1 construct: endogenous in cells; host or cells: A375 human melanoma cells
T1 sequence (O14746 whole entry): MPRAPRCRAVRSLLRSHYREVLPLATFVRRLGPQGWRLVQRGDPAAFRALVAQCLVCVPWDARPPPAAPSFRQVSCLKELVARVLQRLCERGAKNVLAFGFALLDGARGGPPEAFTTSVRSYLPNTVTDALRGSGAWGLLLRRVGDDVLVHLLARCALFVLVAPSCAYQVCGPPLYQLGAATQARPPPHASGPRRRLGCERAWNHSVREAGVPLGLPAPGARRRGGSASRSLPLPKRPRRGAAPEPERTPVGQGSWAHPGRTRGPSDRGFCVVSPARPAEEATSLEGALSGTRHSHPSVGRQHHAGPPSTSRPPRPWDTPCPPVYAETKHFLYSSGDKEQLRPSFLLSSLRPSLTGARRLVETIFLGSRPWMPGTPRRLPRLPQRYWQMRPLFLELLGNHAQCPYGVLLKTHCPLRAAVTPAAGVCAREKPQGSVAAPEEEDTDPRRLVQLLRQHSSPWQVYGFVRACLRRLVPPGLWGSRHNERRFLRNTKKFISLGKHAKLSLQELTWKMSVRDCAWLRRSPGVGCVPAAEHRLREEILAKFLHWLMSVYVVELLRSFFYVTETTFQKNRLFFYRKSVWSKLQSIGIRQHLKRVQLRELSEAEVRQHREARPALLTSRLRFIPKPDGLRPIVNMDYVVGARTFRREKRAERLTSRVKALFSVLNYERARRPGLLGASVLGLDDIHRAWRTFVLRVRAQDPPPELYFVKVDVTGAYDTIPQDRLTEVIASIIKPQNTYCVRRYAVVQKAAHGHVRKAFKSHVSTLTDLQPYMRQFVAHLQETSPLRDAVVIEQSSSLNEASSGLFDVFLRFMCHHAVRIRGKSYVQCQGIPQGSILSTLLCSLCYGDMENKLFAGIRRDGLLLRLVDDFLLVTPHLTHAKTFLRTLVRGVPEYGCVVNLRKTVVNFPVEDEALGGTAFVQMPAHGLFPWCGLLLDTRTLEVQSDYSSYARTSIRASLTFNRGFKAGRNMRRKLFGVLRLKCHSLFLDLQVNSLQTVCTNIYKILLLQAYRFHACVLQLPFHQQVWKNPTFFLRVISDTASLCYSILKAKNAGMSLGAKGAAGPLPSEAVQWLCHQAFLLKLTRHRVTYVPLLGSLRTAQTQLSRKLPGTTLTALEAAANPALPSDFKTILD
Protocol: Thirty-six compounds were tested in a search for inhibitors of telomerase activity using the TRAP-PCR-ELISA assay. In detail, the A375 cells were firstly maintained in RPMI 1640 buffer (Hyclone, Miami, FL), supplemented with 10% fetal bovineserum (GIBCO, New York, NY), streptomycin (0.1 mg/mL) and penicillin (100 IU/mL) at 37 °C in a humidified atmosphere containing 5% CO2. After trypsinisation, 5 × 10^4 cultured cells in logarithmic growth were seeded into T25 flasks (Corning, New York, NY) and cultured to allow to adherence. […] After 24 h treatment, the cells were harvested by cell scraper orderly followed by washing once with PBS. The cells were lysed in 150 µL RIPA cell lysis buffer (Santa Cruz, Santa Cruz, CA), and incubated on ice for 30 min. The cellular supernatants were obtained via centrifugation at 12,000g for 20 min at 4 °C and stored at –80 °C. The TRAP-PCR-ELISA assay was performed using a telomerase detection kit (Roche, Basel, Switzerland) according to the manufacturer’s protocol. In brief, 2 µL of cell extracts were mixed with 48 µL TRAP reaction mixtures. TRAP primers and Taq polymerase are incubated at 25 °C for 30 min. PCR was then initiated at 94 °C, 120 s for predenaturation and performed using 35 cycles each consisting of 94 °C for 30 s, 50 °C for 30 s, 72 °C for 90 s. Then 20 µL of PCR products were hybridised to a digoxigenin (DIG)-labelled telomeric repeat specific detection probe. And the PCR products were immobilised via the biotin-labelled primer to a streptavidin-coated microtiter plate subsequently. The immobilised DNA fragments were detected with a peroxidase-conjugated anti-DIG antibody and visualised following the addition of the stop regent. The microtitre plate was assessed on TECAN Infinite M200 microplate reader (Mannedorf, Switzerland) at a wavelength of 490 nm, and the final value were presented as mean ± SD[23].

[3] = test system: human gastric cancer cells MGC-803; assay: Cell proliferation (MTT) assay, MGC-803; type: cell-based; conditions: antiproliferative, MTT, 48 h exposure; read-out: IC50 MGC-803
Protocol: as §1

[4] = antiproliferative, MTT, 48 h exposure
[5] = antiproliferative, MTT, 48 h exposure, read-out: IC50 MDA-MB-231
[6] = antiproliferative, MTT, 48 h exposure, read-out: IC50 A375
[7] = IC50 inhibitory activity against telomerase
[8] = Homo sapiens, A-375, 48 h, read-out: IC50 A375, antiproliferative, MTT, 48 h exposure
[9] = Homo sapiens, MDA-MB-231, 48 h, read-out: IC50 MDA-MB-231, antiproliferative, MTT, 48 h exposure

Row | Structure (SMILES) | IC50 [2, 5] | IC50 (human melanoma cell A375; [6]) | IC50 (telomerase; [7]) | IC50 (human melanoma cell A375; [8]) | other results
1 | O=Cc1ccc(/C=C/S(=O)(=O)F)o1 [Compound 37] | 21.5 ± 1.29 µM | 9.09 ± 0.81 µM |  |  | IC50 [1, 4]: 35.1 ± 0.49 µM
2 | O=S(=O)(F)/C=C/c1cccc2c1oc1ccccc12 [Compound 38] | 83.2 ± 2.91 µM | 40.8 ± 1.39 µM |  |  | 
3 | O=S(=O)(F)/C=C/c1cc2ccccc2o1 [Compound 39] |  |  | 48.8 ± 2.22 µM |  | 
4 | O=S(=O)(F)/C=C/c1ccsc1 [Compound 41] | 10.6 ± 0.46 µM | 14.6 ± 1.2 µM |  |  | IC50 [1, 4]: 28.8 ± 0.75 µM
5 | O=S(=O)(F)/C=C/c1cc2ccccc2s1 [Compound 42] |  |  |  |  | IC50 inhibitory activity against telomerase (telomerase): no
6 | Cc1ccc(S(=O)(=O)n2cc(/C=C/S(=O)(=O)F)c3ccccc32)cc1 [Compound 44] |  |  | 15.2 ± 1.56 µM | 5.34 ± 0.3 µM | IC50 ([1]; Homo sapiens, SMMC-7721, 48 h): 9.24 ± 0.4 µM
7 | Cc1ccc(S(=O)(=O)n2ccc3cc(/C=C/S(=O)(=O)F)ccc32)cc1 [Compound 45] |  |  |  | 8.61 ± 0.28 µM | IC50 ([1]; Homo sapiens, SMMC-7721, 48 h): 15.6 ± 0.78 µM
8 | O=S(=O)(F)/C=C/c1cnn(-c2ccccc2)c1 [Compound 47] |  |  | 2.13 ± 0.6 µM | 9.04 ± 0.29 µM | IC50 ([1]; Homo sapiens, SMMC-7721, 48 h): 21.2 ± 0.49 µM; IC50 [2, 9]: 10.2 ± 0.44 µM
9 | O=S(=O)(F)/C=C/C=C/c1ccc(Br)cc1 [Compound 51] | 20.9 ± 1.09 µM | 42 ± 1.6 µM |  |  | IC50 [1, 4]: 31.2 ± 1.33 µM
10 | O=S(=O)(F)/C=C/C=C/c1ccc(C(F)(F)F)cc1 [Compound 52] | 15.3 ± 0.82 µM | 13.3 ± 0.87 µM |  |  | IC50 [1, 4]: 24.3 ± 1.19 µM
11 | O=S(=O)(F)/C=C/C=C/c1ccccc1Cl [Compound 53] | 28.5 ± 1.14 µM | 17.5 ± 0.98 µM |  |  | IC50 [1, 4]: 57.3 ± 2.01 µM
12 | O=S(=O)(F)/C=C/C=C/c1ccccc1C(F)(F)F [Compound 54] | 28.5 ± 1.16 µM | 17.5 ± 1.52 µM |  |  | IC50 [1, 4]: 19 ± 0.71 µM
13 | O=S(=O)(F)/C=C/C=C/c1ccc2ccccc2c1 [Compound 55] |  |  | 47.2 ± 1.52 µM | 5.87 ± 0.2 µM | IC50 ([1]; Homo sapiens, SMMC-7721, 48 h): 34.1 ± 1.45 µM; IC50 [2, 9]: 14.3 ± 1.07 µM
14 | O=C1C=C(/C=C/S(=O)(=O)F)CCC1 [Compound 58] |  |  |  |  | IC50 (telomerase; read-out: IC50 inhibitory activity against telomerase): 39.9 ± 1.29 µM
15 | O=S(=O)(F)/C=C/c1cc(F)nc(F)c1 [Compound 59] |  |  | 44.2 ± 2.26 µM | 58 ± 1.71 µM | 
16 | O=Cc1cccc(/C=C/S(=O)(=O)F)c1 [Compound 60] |  | 10.7 ± 0.8 µM |  |  | 
17 | O=C(O)c1ccc(/C=C/S(=O)(=O)F)cc1 [Compound 62] |  |  | 39.9 ± 1.4 µM | 45.1 ± 1.4 µM | IC50 [2, 9]: 86.2 ± 2.44 µM
18 | O=S(=O)(F)/C=C/c1ccc(I)cc1 [Compound 63] |  |  | 45.3 ± 1.87 µM |  | 
19 | CSc1ccc(/C=C/S(=O)(=O)F)cc1 [Compound 64] | 38.3 ± 0.9 µM | 23.9 ± 1.37 µM |  |  | 
20 | Cc1ccc(/C=C/S(=O)(=O)F)cc1 [Compound 65] | 30.5 ± 1.29 µM | 32.7 ± 1.22 µM |  |  | 
21 | O=S(=O)(F)/C=C/c1cc(C(F)(F)F)cc(C(F)(F)F)c1 [Compound 68] | 21.2 ± 0.8 µM | 19.7 ± 1 µM |  |  | IC50 [3]: 37.4 ± 1.35 µM
22 | O=S(=O)(F)/C=C/c1ccccc1F [Compound 73] | 25.6 ± 0.97 µM | 11.2 ± 0.81 µM |  |  | IC50 [3]: 57.7 ± 1.44 µM
23 | O=S(=O)(F)/C=C/c1ccccc1Cl [Compound 78] | 35.2 ± 1.28 µM | 26.3 ± 2.35 µM |  |  | 
24 | O=S(=O)(F)/C=C/c1ccc(C(F)(F)F)nc1 [Compound 79] |  | 23 ± 1.75 µM |  |  | 
25 | CS(=O)(=O)c1cccc(/C=C/S(=O)(=O)F)c1 [Compound 81] |  |  | 2.55 ± 0.4 µM | 7.89 ± 0.56 µM | IC50 ([1]; Homo sapiens, SMMC-7721, 48 h): 34.9 ± 1.7 µM; IC50 [2, 9]: 27.8 ± 1.32 µM
26 | CC(C)S(=O)(=O)c1ccc(/C=C/S(=O)(=O)F)cc1 [Compound 82] |  |  | 37.9 ± 2.19 µM | 24.2 ± 0.6 µM | IC50 ([1]; Homo sapiens, SMMC-7721, 48 h): 8.95 ± 0.27 µM; IC50 [2, 9]: 28.7 ± 1.21 µM
